For orientation: IC50 means the concentration at which inhibition is half-maximal.

In the first assay the target is USP7 (Homo sapiens (Human), UniProt Q93009). Nature of the assay: USP7 fluorescence polarisation (FP) biochemical assay, ubiquitin-Lys-TAMRA substrate. The following applies: Table 3, effect of the R2 substituent; read-out: USP7 IC50. The method, boiled down: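 Full-length His6-USP7 (2.5 nM) incubated ± inhibitor (8-point dilutions, 200 to 0.1 μM before addition) in 50 mM HEPES pH 7.2, 150 mM NaCl, 0.5 mM EDTA, 5 mM DTT, 0.05% BSA, 0.05% CHAPS. Ubiquitin-Lys-TAMRA cleavage followed by FP (ex 530/em 575 nm) every 15 min for 1.5 h; normalised to no-compound control.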
USP7, sequence (Q93009 whole entry): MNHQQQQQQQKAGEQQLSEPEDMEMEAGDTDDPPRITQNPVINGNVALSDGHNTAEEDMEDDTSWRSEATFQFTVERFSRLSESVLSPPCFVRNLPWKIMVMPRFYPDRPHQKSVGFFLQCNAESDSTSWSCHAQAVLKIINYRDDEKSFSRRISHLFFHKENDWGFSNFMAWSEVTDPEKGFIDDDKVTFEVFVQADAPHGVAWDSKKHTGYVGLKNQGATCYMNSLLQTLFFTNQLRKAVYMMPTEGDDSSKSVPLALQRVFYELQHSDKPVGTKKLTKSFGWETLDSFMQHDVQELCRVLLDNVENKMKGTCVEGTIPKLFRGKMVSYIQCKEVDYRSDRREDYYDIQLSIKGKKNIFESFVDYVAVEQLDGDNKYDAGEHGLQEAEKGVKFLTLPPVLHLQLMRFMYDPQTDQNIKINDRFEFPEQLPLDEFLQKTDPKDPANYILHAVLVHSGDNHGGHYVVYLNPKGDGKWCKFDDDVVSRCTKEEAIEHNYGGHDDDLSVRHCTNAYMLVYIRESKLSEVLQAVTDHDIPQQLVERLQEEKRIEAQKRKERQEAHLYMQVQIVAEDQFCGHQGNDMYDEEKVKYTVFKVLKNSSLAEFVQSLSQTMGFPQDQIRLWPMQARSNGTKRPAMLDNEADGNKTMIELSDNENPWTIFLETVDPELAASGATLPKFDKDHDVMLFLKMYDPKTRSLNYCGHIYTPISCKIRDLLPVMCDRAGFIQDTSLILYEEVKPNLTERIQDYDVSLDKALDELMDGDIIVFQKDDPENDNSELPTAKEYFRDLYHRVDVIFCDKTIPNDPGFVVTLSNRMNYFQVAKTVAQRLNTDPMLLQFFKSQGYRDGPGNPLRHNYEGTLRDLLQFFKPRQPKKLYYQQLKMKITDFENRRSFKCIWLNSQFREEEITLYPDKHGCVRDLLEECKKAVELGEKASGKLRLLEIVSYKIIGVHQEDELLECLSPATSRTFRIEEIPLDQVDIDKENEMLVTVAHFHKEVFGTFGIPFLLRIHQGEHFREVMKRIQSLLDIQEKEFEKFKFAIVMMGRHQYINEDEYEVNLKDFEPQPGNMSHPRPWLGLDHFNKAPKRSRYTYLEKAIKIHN
Background: Fluorescence polarisation rises when a labelled molecule tumbles more slowly, as on binding a larger partner.
In the case of `C[C@H](CC(=O)N1CCC(O)(Cn2cnc3cn(C)nc3c2=O)CC1)c1ccccc1` [Example 20, (R)-6-((4-Hydroxy-1-(3-phenylbutanoyl)piperidin-4-yl)methyl)-2-methyl-2H-pyrazolo[4,3-d]pyrimidin-7(6H)-one], the IC50 came out at 3 µM.

Staying with this assay, now noted: Table 4, biochemical assay; average of at least duplicate experiments; read-out: USP7 IC50.
For the compound `[2H]C1([2H])Oc2ccc(-n3c(Cl)cc4c(=O)n(CC5(O)CCN(C(=O)C6(C)CC6)CC5)cnc43)cc2O1` [Example 235, 7-(Benzo[d][1,3]dioxol-5-yl-2,2-d2)-6-chloro-3-((4-hydroxy-1-(1-methylcyclopropane-1-carbonyl)piperidin-4-yl)methyl)-3,7-dihydro-4H-pyrrolo[2,3-d]pyrimidin-4-one], the IC50 is less than 0.25 µM. As to `CC(C)c1cc(=O)n(CC2(O)CCN(C(=O)C[C@@H](C)c3ccccc3)CC2)cn1` [Example 81, (R)-3-((4-Hydroxy-1-(3-phenylbutanoyl)piperidin-4-yl)methyl)-6-isopropylpyrimidin-4(3H)-one], the half-maximal inhibitory concentration (IC50) is 1 to 200 µM.

As to `Cn1cc(C(=O)N2CCC(O)(Cn3cnc4c(cc(Cl)n4-c4ccccc4)c3=O)CC2)cn1` [Example 216, 6-Chloro-3-((4-hydroxy-1-(1-methyl-1H-pyrazole-4-carbonyl)piperidin-4-yl)methyl)-7-phenyl-3H-pyrrolo[2,3-d]pyrimidin-4(7H)-one], the IC50 lay within 0.25 to 0.999 µM. Same read-out and setting: the figure for `C[C@H](CC(=O)N1CCC(O)(Cn2cnc(N3CCC4(CC3)COC4)cc2=O)CC1)c1ccccc1` [Example 175, (R)-3-((4-hydroxy-1-(3-phenylbutanoyl)piperidin-4-yl)methyl)-6-(2-oxa-7-azaspiro[3.5]nonan-7-yl)pyrimidin-4(3H)-one] is 1 to 200 µM; for `C[C@H](CC(=O)N1CCC(O)(Cn2cnc3c(-c4ccccc4)cnn3c2=O)CC1)c1ccccc1` [Example 139, (R)-3-((4-Hydroxy-1-(3-phenylbutanoyl)piperidin-4-yl)methyl)-8-phenylpyrazolo[1,5-a][1,3,5]triazin-4(3H)-one] it is less than 0.25 µM; for `O=C(C[C@H](c1ccccc1)C(F)F)N1CCC(O)(Cn2cnc3c(ncn3-c3ccccc3)c2=O)CC1` [Example 129, (R)-1-((1-(4,4-Difluoro-3-phenylbutanoyl)-4-hydroxypiperidin-4-yl)methyl)-9-phenyl-1H-purin-6(9H)-one] it is less than 0.25 µM. For `Cn1nc2c(=O)n(CC3(O)CCN(C(=O)C4(C)CC4)CC3)cnc2c1-c1ccc(CN)cc1` [Example 237, 3-(4-(Aminomethyl)phenyl)-6-((4-hydroxy-1-(1-methylcyclopropane-1-carbonyl)piperidin-4-yl)methyl)-2-methyl-2,6-dihydro-7H-pyrazolo[4,3-d]pyrimidin-7-one], the IC50 lay within 1 to 200 µM. As for `Cn1cc(-c2cc(-n3c(Cl)cc4c(=O)n(CC5(O)CCN(C(=O)c6cnc(C7CC7)o6)CC5)cnc43)ccc2F)cn1` [Example 232, 6-Chloro-3-((1-(2-cyclopropyloxazole-5-carbonyl)-4-hydroxypiperidin-4-yl)methyl)-7-(4-fluoro-3-(1-methyl-1H-pyrazol-4-yl)phenyl)-3H-pyrrolo[2,3-d]pyrimidin-4(7H)-one], the IC50 is less than 0.25 µM.

For the compound `C[C@H](CC(=O)N1CCC(O)(Cn2cnc3cn(C)nc3c2=O)CC1)c1ccccc1` [Example 20, (R)-6-((4-Hydroxy-1-(3-phenylbutanoyl)piperidin-4-yl)methyl)-2-methyl-2H-pyrazolo[4,3-d]pyrimidin-7(6H)-one], the IC50 lay in the range of 1 to 200 µM. Regarding `CCn1nc2c(=O)n(CC3(O)CCN(C(=O)C[C@H](c4ccccc4)C(F)(F)F)CC3)cnc2c1-c1ccc(CN)cc1` [Example 120], the IC50 is less than 0.25 µM.

Turning to `Cn1nc2c(=O)n(CC3(O)CCN(C(=O)CCC4CCC4)CC3)cnc2c1-c1ccc(CN)cc1` [Example 138, 3-(4-(Aminomethyl)phenyl)-6-((1-(3-cyclobutylpropanoyl)-4-hydroxypiperidin-4-yl)methyl)-2-methyl-2H-pyrazolo[4,3-d]pyrimidin-7(6H)-one], the IC50 was 0.25 to 0.999 µM. Same read-out and setting: the same measure for `C[C@H](CC(=O)N1CCC(O)(Cn2cnc(N3CC(F)C3)cc2=O)CC1)c1ccccc1` [Example 165, (R)-6-(3-fluoroazetidin-1-yl)-3-((4-hydroxy-1-(3-phenylbutanoyl)piperidin-4-yl)methyl)pyrimidin-4(3H)-one]: 1 to 200 µM; for `C[C@H](CC(=O)N1CCC(O)(Cn2cnc(N[C@@H](Cc3ccccc3)CN3CCCC3)cc2=O)CC1)c1ccccc1` [Example 57, 3-((4-Hydroxy-1-((R)-3-phenylbutanoyl)piperidin-4-yl)methyl)-6-(((S)-1-phenyl-3-(pyrrolidin-1-yl)propan-2-yl)amino)pyrimidin-4(3H)-one, Formic Acid]: 1 to 200 µM; for `C=C(C)[C@H](C)CC(=O)N1CCC(O)(Cn2cnc3c(-c4ccccc4)n(C)nc3c2=O)CC1` [Example 35, (R)-6-((1-(3,4-Dimethylpent-4-enoyl)-4-hydroxypiperidin-4-yl)methyl)-2-methyl-3-phenyl-2H-pyrazolo[4,3-d]pyrimidin-7(6H)-one]: 0.25 to 0.999 µM. Regarding `Cn1nc2c(=O)n(CC3(O)CCN(C(=O)CC(C4CC4)C4CC4)CC3)cnc2c1-c1ccc(CN)cc1` [Example 127, 3-(4-(Aminomethyl)phenyl)-6-((1-(3,3-dicyclopropylpropanoyl)-4-hydroxypiperidin-4-yl)methyl)-2-methyl-2H-pyrazolo[4,3-d]pyrimidin-7(6H)-one], the 50% inhibitory concentration (IC50) is less than 0.25 µM. Same read-out and setting: the same measure for `CN(C)Cc1ccc(-c2c3ncn(CC4(O)CCN(C(=O)C[C@H](c5ccccc5)C(F)(F)F)CC4)c(=O)c3nn2C)cc1` [Example 79, (R)-3-(4-((Dimethylamino)methyl)phenyl)-6-((4-hydroxy-1-(4,4,4-trifluoro-3-phenylbutanoyl)piperidin-4-yl)methyl)-2-methyl-2H-pyrazolo[4,3-d]pyrimidin-7(6H)-one]: less than 0.25 µM; for `C[C@H](CC(=O)N1CCC(O)(Cn2cnc(NC3CCOC3)cc2=O)CC1)c1ccccc1` (stereo partly drawn) [Example 151, 3-((4-hydroxy-1-((R)-3-phenylbutanoyl)piperidin-4-yl)methyl)-6-((tetrahydrofuran-3-yl)amino)pyrimidin-4(3H)-one]: 1 to 200 µM.

For the compound `CC1(C(=O)N2CCC(O)(Cn3cnc4c(cc(Cl)n4-c4cccc(Br)c4)c3=O)CC2)CC1` [Example 214, 7-(3-Bromophenyl)-6-chloro-3-((4-hydroxy-1-(1-methylcyclopropanecarbonyl)piperidin-4-yl)methyl)-3H-pyrrolo[2,3-d]pyrimidin-4(7H)-one], the IC50 is 0.25 to 0.999 µM.

As for `O=C(CC(C1CC1)C1CC1)N1CCC(O)(Cn2cnc(NCCN3CCCC3)cc2=O)CC1` [Example 133, 3-((1-(3,3-Dicyclopropylpropanoyl)-4-hydroxypiperidin-4-yl)methyl)-6-((2-(pyrrolidin-1-yl)ethyl)amino)pyrimidin-4(3H)-one], the IC50 is 0.25 to 0.999 µM. Same read-out and setting: the figure for `C[C@H](CC(=O)N1CCC(O)(Cn2cnc3c(ncn3-c3ccc(CN)cc3)c2=O)CC1)c1ccccc1` [Example 68, (R)-9-(4-(Aminomethyl)phenyl)-1-((4-hydroxy-1-(3-phenylbutanoyl)piperidin-4-yl)methyl)-1H-purin-6(9H)-one] is less than 0.25 µM; for `C[C@H](CC(=O)N1CCC(O)(Cn2cnc3c(ncn3-c3ccccc3)c2=O)CC1)c1ccccc1` [Example 17, (R)-1-((4-Hydroxy-1-(3-phenylbutanol)piperidin-4-yl)methyl)-9-phenyl-1H-purin-6(9H)-one] it is less than 0.25 µM.

Regarding `C[C@H](CC(=O)N1CCC(O)(Cn2cnc(N3CCC(c4ccn[nH]4)CC3)cc2=O)CC1)c1ccccc1` [Example 156, (R)-6-(4-(1H-pyrazol-5-yl)piperidin-1-yl)-3-((4-hydroxy-1-(3-phenylbutanoyl)piperidin-4-yl)methyl)pyrimidin-4(3H)-one], the IC50 lay within 1 to 200 µM. On the same count and under the same terms, the same measure for `CC1(C(=O)N2CCC(O)(Cn3cnc4c(cc(Cl)n4-c4cccc(C5CC5)c4)c3=O)CC2)CC1` [Example 218, 6-Chloro-7-(3-cyclopropylphenyl)-3-((4-hydroxy-1-(1-methylcyclopropanecarbonyl)piperidin-4-yl)methyl)-3H-pyrrolo[2,3-d]pyrimidin-4(7H)-one]: less than 0.25 µM.

Still in this assay, the particulars now being: USP7 IC50, Table 4, biochemical assay; average of at least duplicate experiments.
As to `Cc1ccc([C@@H](CC(=O)N2CCC(O)(Cn3cnc4c(-c5ccc(CN)cc5)n(C)nc4c3=O)CC2)C(F)(F)F)s1` [Example 125, (S)-3-(4-(Aminomethyl)phenyl)-6-((4-hydroxy-1-(4,4,4-trifluoro-3-(5-methylthiophen-2-yl)butanoyl)piperidin-4-yl)methyl)-2-methyl-2H-pyrazolo[4,3-d]pyrimidin-7(6H)-one], the IC50 fell in the range of 0.25 to 0.999 µM. Same read-out and setting: the figure for `Cn1nc2c(=O)n(CC3(O)CCN(C(=O)C[C@H](c4ccccc4)C(F)(F)F)CC3)cnc2c1-c1ccc([C@@H](N)C(F)(F)F)cc1` [Example 118, 3-(4-((R)-1-Amino-2,2,2-trifluoroethyl)phenyl)-6-((4-hydroxy-1-((R)-4,4,4-trifluoro-3-phenylbutanoyl)piperidin-4-yl)methyl)-2-methyl-2H-pyrazolo[4,3-d]pyrimidin-7(6H)-one] is 0.25 to 0.999 µM.

With `Cc1nc2c(=O)n(CC3(O)CCN(C(=O)C[C@H](c4ccccc4)C(F)(F)F)CC3)cnc2n1-c1ccccc1` [Example 189, (R)-1-((4-Hydroxy-1-(4,4,4-trifluoro-3-phenylbutanoyl)piperidin-4-yl)methyl)-8-methyl-9-phenyl-1H-purin-6(9H)-one], the concentration for half-maximal inhibition (IC50) was in the range of 0.25 to 0.999 µM. On to `C[C@H](CC(=O)N1CCC(O)(Cn2cnc(NCCN3CC[C@@H](F)C3)cc2=O)CC1)c1ccccc1` [Example 73, 6-((2-((R)-3-Fluoropyrrolidin-1-yl)ethyl)amino)-3-((4-hydroxy-1-((R)-3-phenylbutanoyl)piperidin-4-yl)methyl)pyrimidin-4(3H)-one, Formic Acid], for which the concentration for half-maximal inhibition (IC50) was 0.25 to 0.999 µM. As for `CC(C)Cn1cc(-c2cc(=O)n(CC3(O)CCN(C(=O)C[C@@H](C)c4ccccc4)CC3)cn2)cn1` [Example 41, (R)-3-((4-Hydroxy-1-(3-phenylbutanoyl)piperidin-4-yl)methyl)-6-(1-isobutyl-1H-pyrazol-4-yl)pyrimidin-4(3H)-one], the IC50 lay in the range of 0.25 to 0.999 µM.

(Values after patent US10766903B2 (ALMAC DISCOVERY LIMITED, priority 2016, dated 2020).)
